Results published in patent US20250129076A1, “FUSED TETRACYCLIC COMPOUNDS, COMPOSITIONS AND DIAGNOSTIC APPLICATIONS THEREOF” (priority 2021, published 2025).
Entries after “also recorded” stand apart in the source; their conditions may differ.

Columns and labels:
[1] = test system: RNA of E. coli BL21; assay: Working concentration of compound (25) for RNA detection, agarose gel electrophoresis; assay type: binding; details: 10-50 ng RNA with 5, 10, 20, 40 ng of compound 25; 1% agarose gel, TBE buffer
Procedure: To check the working concentration of compound (25) using different concentrations of RNA, RNA of E. coli BL21 was isolated and diluted to 10 ng/μl from the stock. Using a TBE buffer 1% agarose gel was casted and gel electrophoresis is performed using 10-50 ng concentration of RNA with 5, 10, 20, 40 ng of compound 25.

[2] = test system: Calf Thymus DNA (CT-DNA); assay: Increase in fluorescence upon binding with Calf Thymus DNA; details: figure legends FIG. 12-22
Procedure: 1 mg/ml stock solutions of all the compounds were prepared in DMSO. Few insoluble compounds were then dissolved in non-polar solvent. 10 ul (1 mg/ml) of each of the compounds were used to do an absorbance scan in the TECAN nano reader and the graphs were plotted. The absorbance peaks for each of the compounds were tabulated and further used as excitation wavelength for fluorescence scans. Initially an absorbance scan was performed to identify the excitation maxima after which the excitation wavelength was used to obtain the emission maxima/fluorescence plots. Once the excitation and emission maxima were known, different concentrations of the compounds were used starting from 10 ng to saturating concentrations to obtain fluorescent spectra. Similarly, a fixed concentration of the compound was used to which an increasing concentration of DNA/RNA was added until saturation to find the nucleic acid binding properties of the dyes and compounds. In addition, a fixed concentration of DNA/RNA was used, to which increasing concentrations of the compounds were added until saturation. The data obtained was plotted and used for calculating binding constants and determining the binding ability of the dyes and compounds. 1 mg/ml stock solutions of all compounds the were prepared in DMSO. Few insoluble compounds were then dissolved in nonpolar solvent. 10 ul (1 mg/ml) of each of the compounds were used to do an absorbance scan in the TECAN nano reader and the graphs were plotted. The absorbance peaks for each of the compounds were tabulated and further used as excitation wavelength for fluorescence scans. Initially an absorbance scan was performed to identify the excitation maxima after which the excitation wavelength was used to obtain the fluorescence plots. Once the excitation and emission maxima were known, different concentrations of the compounds were used starting from 10 ng to saturating concentrations to obtain fluorescent spectra. Similarly, a fixed concentration of the said compound was used to which an increasing concentration of DNA/RNA was added until saturation to find the nucleic acid binding properties of the dyes and compounds. In addition, a fixed concentration of DNA/RNA was used, to which increasing concentrations of the compounds were added until saturation. The data obtained was plotted and used for calculating binding constants and determining the binding ability of the dyes and compounds.

[3] = test system: RNA; assay: Detection of RNA binding by the compounds (Table 2); details: yes = binding detected, empty cells not reported
[4] = test system: DNA; assay: Detection of DNA binding by the compounds (Table 2); details: yes = binding detected, empty cells not reported
[5] = test system: DNA; assay: Emission maxima with DNA; assay type: binding; details: Table 6
Procedure: The absorbance peaks for each of the compounds were tabulated and further used as excitation wavelength for fluorescence scans. Initially an absorbance scan was performed to identify the excitation maxima after which the excitation wavelength was used to obtain the emission maxima/fluorescence plots. Once the excitation and emission maxima were known, different concentrations of the compounds were used starting from 10 ng to saturating concentrations to obtain fluorescent spectra. Similarly, a fixed concentration of the compound was used to which an increasing concentration of DNA/RNA was added until saturation to find the nucleic acid binding properties of the dyes and compounds. In addition, a fixed concentration of DNA/RNA was used, to which increasing concentrations of the compounds were added until saturation. The data obtained was plotted and used for calculating binding constants and determining the binding ability of the dyes and compounds.
(§1) 1 mg/ml stock solutions of all compounds the were prepared in DMSO. Few insoluble compounds were then dissolved in nonpolar solvent. 10 ul (1 mg/ml) of each of the compounds were used to do an absorbance scan in the TECAN nano reader and the graphs were plotted. The absorbance peaks for each of the compounds were tabulated and further used as excitation wavelength for fluorescence scans. Initially an absorbance scan was performed to identify the excitation maxima after which the excitation wavelength was used to obtain the fluorescence plots. Once the excitation and emission maxima were known, different concentrations of the compounds were used starting from 10 ng to saturating concentrations to obtain fluorescent spectra. Similarly, a fixed concentration of the said compound was used to which an increasing concentration of DNA/RNA was added until saturation to find the nucleic acid binding properties of the dyes and compounds. In addition, a fixed concentration of DNA/RNA was used, to which increasing concentrations of the compounds were added until saturation. The data obtained was plotted and used for calculating binding constants and determining the binding ability of the dyes and compounds.

[6] = Absorbance and fluorescence scans (excitation and emission maxima); assay type: physicochemical; parameters: unit not given here; details: compound alone; Table 6
Procedure: 1 mg/ml stock solutions of all the compounds were prepared in DMSO. Few insoluble compounds were then dissolved in non-polar solvent. 10 ul (1 mg/ml) of each of the compounds were used to do an absorbance scan in the TECAN nano reader and the graphs were plotted.
The absorbance peaks for each of the compounds were tabulated and further used as excitation wavelength for fluorescence scans. Initially an absorbance scan was performed to identify the excitation maxima after which the excitation wavelength was used to obtain the emission maxima/fluorescence plots. Once the excitation and emission maxima were known, different concentrations of the compounds were used starting from 10 ng to saturating concentrations to obtain fluorescent spectra. Similarly, a fixed concentration of the compound was used to which an increasing concentration of DNA/RNA was added until saturation to find the nucleic acid binding properties of the dyes and compounds. In addition, a fixed concentration of DNA/RNA was used, to which increasing concentrations of the compounds were added until saturation. The data obtained was plotted and used for calculating binding constants and determining the binding ability of the dyes and compounds. […]
as §1

[7] = test system: Protein; assay: Detection of protein binding by the compounds (Table 2); details: yes = binding detected, empty cells not reported
Excerpt: Absorbance Spectra and Fluorescence Spectra conditions for compound+DNA/RNA/Protein Methods of experimentation: An Excitation Max: 488 nm, Emission Max: 560 nm, Band width: 488-600 nm on Alexa Fluor 488 channel were used for flow cytometry and microscopic determinations TECAN spectrofluorimeter.

[8] = test system: double-stranded DNA; details: when bound; cited from earlier work
[9] = Comparison with commonly available DNA staining agents: toxicity (Table 3); details: Hoescht and DAPI cells wrap: 'Potentially carcinogenic & Mutagenic'
[10] = Comparison with commonly available DNA staining agents: photostability (Table 3); assay type: physicochemical

SMILES: CN1C/C(=C\c2ccc(O)c(O)c2)C(=O)c2ccc(O)cc21 [Compound 025]
- RNA bands on gel [1]: bands are in all the wells
- increase in fluorescence upon binding with Calf Thymus DNA (CT-DNA) [2]: > 1000 fold
- RNA (binding detected) [3]: yes

SMILES: COc1ccc2c(c1)OC/C(=C\c1ccc(OC)c(OC)c1)C2=O [Compound 009]
- increase in fluorescence upon binding with Calf Thymus DNA (CT-DNA) [2]: 15 fold
- RNA (binding detected) [3]: yes

SMILES: Oc1ccc2c(c1)OC[C@]1(O)Cc3cc(O)c(O)cc3[C@H]21 [Compound 033]
- DNA (binding detected) [4]: yes
- increase in fluorescence upon binding with Calf Thymus DNA (CT-DNA) [2]: > 1000 fold
- RNA (binding detected) [3]: yes

SMILES: Cc1ccc(S(=O)(=O)N2C[C@]3(O)Cc4cc(O)c(O)cc4[C@@H]3c3cc(-c4ccc(F)cc4)c(O)cc32)cc1 [Compound 039]
- DNA (binding detected) [4]: yes

SMILES: CCc1cc(O)ccc1C(=O)/C=C/C1=CC(OC)C(O)C=C1 (centres unmarked) [Compound 031]
- Emission maxim with DNA [5]: 610 nm
- Emission maxima [6]: 610
- Excitation Maxima [6]: 490
- RNA (binding detected) [3]: yes

SMILES: O=C1C=C2C(=C[C@@]3(O)COc4cc(O)ccc4[C@@H]23)C=C1O [Compound 019]
- Emission maxim with DNA [5]: 570 nm
- DNA (binding detected) [4]: yes
- Emission maxima [6]: 570
- Excitation Maxima [6]: 490
- increase in fluorescence upon binding with Calf Thymus DNA (CT-DNA) [2]: > 1000 fold

SMILES: Oc1cc2c(cc1O)[C@@H]1c3cc(-c4ccc(F)cc4)c(O)cc3OC[C@]1(O)C2 [Compound 037]
- DNA (binding detected) [4]: yes
- Protein (binding detected) [7]: yes
- increase in fluorescence upon binding with Calf Thymus DNA (CT-DNA) [2]: > 1000 fold
- RNA (binding detected) [3]: yes

SMILES: Cc1ccc(C)cc1 [Compound 026]
- Emission maxim with DNA [5]: 590 nm
- DNA (binding detected) [4]: yes
- Emission maxima [6]: 580
- Excitation Maxima [6]: 490
- RNA (binding detected) [3]: yes

SMILES: CCCN(CCCN(C)C)c1cc(/C=C2/Sc3ccccc3N2C)c2ccccc2[n+]1-c1ccccc1 [SYBR Green]
- absorbs at a wavelength [8]: around 497 nm
- emits fluorescence [8]: around 530 nm

SMILES: COc1cc2c(cc1OC)[C@@H]1c3cc(-c4ccccc4)c(OC)cc3N(S(=O)(=O)c3ccc(C)cc3)C[C@]1(O)C2 [Compound 038]
- increase in fluorescence upon binding with Calf Thymus DNA (CT-DNA) [2]: 2 fold
- RNA (binding detected) [3]: yes

SMILES: Cc1cc2c(cc1O)OC[C@]1(O)Cc3cc(O)c(O)cc3[C@H]21 [Compound 032]
- Emission maxim with DNA [5]: 570 nm
- Emission maxima [6]: 570
- Excitation Maxima [6]: 490

SMILES: Cc1ccc2c(c1)OC/C(=C\c1ccc(C)c(C)c1)C2=O [Compound 016]
- Emission maxim with DNA [5]: 610 nm
- DNA (binding detected) [4]: yes
- Emission maxima [6]: 610
- Excitation Maxima [6]: 490
- increase in fluorescence upon binding with Calf Thymus DNA (CT-DNA) [2]: 5 fold

SMILES: COc1cc(/C=C2\COc3cc(O)ccc3C2=O)ccc1O [Compound 007]
- DNA (binding detected) [4]: yes
- increase in fluorescence upon binding with Calf Thymus DNA (CT-DNA) [2]: 25 fold
- RNA (binding detected) [3]: Yes

SMILES: Oc1cc2c(cc1O)[C@@H]1c3cc(-c4ccccc4)c(O)cc3OC[C@]1(O)C2 [Compound 035]
- Emission maxim with DNA [5]: 580 nm
- Protein (binding detected) [7]: yes
- Emission maxima [6]: 580
- Excitation Maxima [6]: 490
- increase in fluorescence upon binding with Calf Thymus DNA (CT-DNA) [2]: > 1000 fold
- RNA (binding detected) [3]: yes

SMILES: Oc1ccc2c(c1)OC[C@](O)(Cc1ccc(O)c(O)c1)[C@H]2O [Compound 017]
- DNA (binding detected) [4]: yes
- increase in fluorescence upon binding with Calf Thymus DNA (CT-DNA) [2]: > 1000 fold
- RNA (binding detected) [3]: yes

SMILES: N=C(N)c1ccc(-c2cc3ccc(C(=N)N)cc3[nH]2)cc1 [DAPI]
- Toxicity [9]: carcinogenic; also recorded: & Mutagenic
- Photostability [10]: 10 min

SMILES: COc1ccc2c(c1)SCC1=C2c2cc(OC)c(OC)cc2C1 [Compound 021]
- RNA (binding detected) [3]: yes

SMILES: O=C1/C(=C/c2ccc(O)c(O)c2)COc2cc(O)ccc21 [Compound 015]
- Emission maxim with DNA [5]: 610 nm
- DNA (binding detected) [4]: yes
- Emission maxima [6]: 570
- Excitation Maxima [6]: 490
- RNA (binding detected) [3]: yes
